This is an account of results in paper PMC10395789, “Impacts of some metal ions on glutathione s-transferase in the liver of Chalcalburnus tarichi: an endemic species of Lake Van” (Turkish Journal of Chemistry, 2022).

The test system of experiment [1] is GST in the liver of Bonito. Further details: method as in Güller et al. 43. The settings on record: ref Güller et al. 43; cited from earlier work.
Experiment [2] relates to C. tarichi Pallas liver GST. Description: Kinetic analysis (Km, Vmax, Lineweaver–Burk plot) of liver GST with GSH and CDNB as cosubstrates. It is filed as biochemical, Chalcalburnus tarichi Pallas. As to conditions: substrate of liver GST. Here is the method: (§1) GST activity was measured with the method in our previous study using CDNB as the model substrate.
Bradford procedure was used for protein quantity. The optimal pH and ionic strength were determined based on the activity of the pure enzyme described in a previous study. The effects of temperature on GST activity were made spectrophotometrically at temperatures ranging from 0 to 80 °C as described in a previous study. Stable pH ranges were 5.5–8.0 and 7.0–9.0. The enzyme solution was mixed with the buffers at the corresponding pH values. The activities were assayed at every 24 h for 4 days. Different concentrations of GSH and CDNB were used as substrates to determine the Vmax and Km values of the GST enzyme. Vmax and Km values were determined based on the Lineweaver–Burk plot.

Experiment [3] concerns C. tarichi Pallas liver GST. Kind of experiment: In vitro inhibition effect of metals on GST enzyme activity. The experiment is classed as biochemical, Chalcalburnus tarichi Pallas. The settings on record: for Inhibition type / Ki: GSH substrate, Lineweaver–Burk plots; for IC50: purified liver GST, from Activity (%)–[metal ion] plots; for Ki: three metal concentrations, mean ± standard error of the mean. Here is the method: C. tarichi Pallas fish were obtained from Van Lake basin. The liver samples of C. tarichi Pallas were immediately removed and preserved for experimental studies according to the cold chain principles. The livers were sliced into small pieces and successfully lysed by a homogenizer in 50 mM Tris/HCl buffer (pH 7.2) containing 1 mM DTT, 1 mM PMSF and 1 mM EDTA. Homogenate was centrifuged twice at 4 °C and 20,000 × g for 60 min. The supernatant was used in subsequent analyses. For GST purification, we followed the procedure described in our previous study.
as §1
IC50 was defined as the concentration of the compound causing 50% inhibition, and it was calculated based on Activity (%)–[metal ion] plots for each metal. The Ki values and inhibition types were found using Lineweaver–Burk plots. For the Ki study, we selected 3 inhibitor concentrations and made activity measurements relative to the control values, and then we calculated 1 / S and 1 / V values and plotted Ki plots. Analysis of the data and drawing of graphs were realized using GraphPad Prism ver. 8 for Mac (GraphPad Software, La Jolla California USA). […] Differences between data sets were considered statistically significant when the p-value was less than 0.05.

Experiment [4] deals with GST from Lake Van fish gills. Further details: method as in PMID 25856719. As to conditions: Lake Van fish gill GST; cited from earlier work.
The next experiment has as its system GST from muscle tissue. Further details: method as in Aksoy et al. 15. The settings on record: ref Aksoy et al. 15; cited from earlier work.
In the next experiment the test system is GST from turkey livers. Set-up: method as in PMID 22989768. The settings on record: turkey liver GST; cited from earlier work.

Values joined by “and” are separate entries in the source; they are usually repeats but may differ in a detail not shown here. Equal entries are not always repeated.

Turning to `[Pb+2]` [Pb^2+], in experiment [1], the “Effect on GST enzyme activity” value was “did not show any impact”.
In the case of `O=[N+]([O-])c1ccc(Cl)c([N+](=O)[O-])c1` [CDNB], in experiment [2], the Km is 890 µM; the Vmax is 1.245 EU/mL and 1.25 EU/mL.
With `[Co+2]` [Co^2+], in experiment [3], the Inhibition type entry is given as “Competitive” and half-maximal inhibition (IC50) was put at 446 µM.
For `[Zn+2]` [Zn^2+], the “Effect on GST enzyme activity” value in experiment [1] is “showed inhibitory effects”.
For `[Cu+2]` [Cu^2+], in experiment [3], the Inhibition type entry is listed as “Competitive”, the Ki amounted to 49 ± 9 µM and the IC50 turned out to be 163 µM. Besides, the “Effect on GST enzyme activity” value in experiment [1] is recorded as “showed inhibitory effects”.
For `[Fe+3]` [Fe^3+], the “Effect on GST enzyme activity” value in experiment [1] was “did not show any impact”.
With `[Cd+2]` [Cd^2+], in experiment [3], the Inhibition type entry is given as “Competitive”, the Ki amounted to 117 ± 31 µM and it took 235 µM to reach half-maximal inhibition (IC50). In addition, the “Effect on GST enzyme activity” value in experiment [1] is listed as “showed inhibitory effects”.
With `[Cr+2]` [Cr^2+], the “Effect on GST enzyme activity” value in experiment [1] is “did not show any impact”.
For `N[C@@H](CCC(=O)N[C@@H](CS)C(=O)NCC(=O)O)C(=O)O` [GSH], in experiment [2], the Km came out at 60 µM; the Vmax is 0.562 EU/mL and 0.56 EU/mL.
In the case of `[Ag+]` [Ag^+], in experiment [3], the Inhibition type entry is recorded as “Noncompetitive” and the IC50 was 0.21 µM. Further, the “Inhibitory effect among the studied metal ions” value in experiment [3] (compared with Cu2+, Cd2+, Co2+) is given as “best inhibitory effect”. Moreover, the “Inhibitory effect among the studied metal ions” value in experiment [4] is “best inhibitory effect”. For the same molecule, the “Inhibitory effect among all studied metal ions” value in the experiment with GST from muscle tissue is “best inhibitor”. Besides, the “Inhibitory effect on enzyme activity” value with GST from turkey livers is on record as “potent inhibitory effect”. In experiment [1], the “Effect on GST enzyme activity” value is on record as “showed inhibitory effects”.
